From ChEMBL document CHEMBL1144036, “Bornyl (3,4,5-trihydroxy)-cinnamate--an optimized human neutrophil elastase inhibitor designed by free energy calculations” (Bioorg Med Chem, 2008)

Molecular target: T1, Neutrophil elastase (Homo sapiens, UniProt P08246)
T1 sequence (P08246 whole entry): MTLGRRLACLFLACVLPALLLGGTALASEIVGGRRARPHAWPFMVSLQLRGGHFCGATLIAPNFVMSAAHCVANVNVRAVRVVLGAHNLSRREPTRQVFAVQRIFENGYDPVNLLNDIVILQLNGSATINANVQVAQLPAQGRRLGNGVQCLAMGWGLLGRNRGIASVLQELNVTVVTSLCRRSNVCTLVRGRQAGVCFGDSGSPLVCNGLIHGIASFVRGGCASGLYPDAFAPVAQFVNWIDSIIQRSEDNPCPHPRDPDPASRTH
Experiment: Inhibition of human neutrophil elastase

SMILES | IC50 [µM]
CC1(C)C2CC[C@]1(C)C(OC(=O)/C=C/c1ccc(O)c(O)c1)C2 (some centres not stated) | 1.56
CC1(C)C2CC[C@]1(C)C(OC(=O)/C=C/c1cc(O)c(O)c(O)c1)C2 (some centres not stated) | 0.54
